Experimental data reported in BindingDB's records for doi:10.1038/nchembio.2326 (California Institute of Technology, 2017).

Assays:
[1] = target: 26S proteasome non-ATPase regulatory subunit 14 (Homo sapiens, UniProt O00487); experiment: In Vitro Rpn11 Activity Assay; conditions: pH 7.5; 30 °C
Experimental: Fluorescence polarization assays were performed in low-volume 384-well solid black plates (Molecular Devices) in quadruplicate. The assays were performed in buffer containing 50 mM Tris-HCl pH7.5, 1 mM MgCl2, 50 μM ATP, 1 mM DTT and 0.01% NP-40. The components for the assay were added in the following sequence: (1) 5 μl compound (in 3% DMSO) at different concentrations, (2) 5 μl of diluted human 26S proteasome (Enzo Life Sciences, NY. 26S proteasome was pre-incubated with epoxomicin at room temperature for 1 h, then diluted ten-fold in 1× Assay Buffer), and (3) 5 μl of substrate (3 nM Ub4peptideOG). 100 μM Zn(cyclen)2+ was present in the titration reaction for the experiments performed with Zn(cyclen)2+. Fluorescence polarization was measured at 30 °C using a PHERAstar plate reader (BMG Labtech) with excitation at 480 nm and emission at 520 nm.

Lactoylglutathione lyase = Lactoylglutathione lyase (Homo sapiens, UniProt Q04760); experiment: GLO1 Activity Assay; conditions: pH 7; 25 °C
Experimental: Assays were carried out in 100 mM sodium phosphate, pH 7.0 buffer using 96-well Clear UV Plate (Corning UV Transparent Microplates; catalog #3635). A fresh solution of glutathione (pre-substrate 1, 100 mM) as well as methylglyoxal (pre-substrate 2, 100 mM) was prepared in deionized water. The substrate was prepared by adding 14.5 ml of buffer and 0.99 ml of each pre-substrate components. The substrate mixture was vortexed vigorously for 15 s, then allowed to sit at room temperature for 20 min. Initial well volume was 50 μl containing GLO1 (40 ng) and inhibitor. This protein and inhibitor mixture was incubated for 15–20 min before the addition of substrate. To this was then added substrate (150 μl), yielding a maximum amount of 5% DMSO per well. The enzyme activity was measured using a BioTek Synergy H4 plate reader by measuring absorbance at 240 nmevery 1 min for 8 min.

Histone deacetylase 6 = target: T1, Histone deacetylase 6 (Homo sapiens, UniProt Q9UBN7); experiment: HDAC6 Activity Assay; conditions: pH 8; 37 °C
T1 sequence (Q9UBN7 whole entry): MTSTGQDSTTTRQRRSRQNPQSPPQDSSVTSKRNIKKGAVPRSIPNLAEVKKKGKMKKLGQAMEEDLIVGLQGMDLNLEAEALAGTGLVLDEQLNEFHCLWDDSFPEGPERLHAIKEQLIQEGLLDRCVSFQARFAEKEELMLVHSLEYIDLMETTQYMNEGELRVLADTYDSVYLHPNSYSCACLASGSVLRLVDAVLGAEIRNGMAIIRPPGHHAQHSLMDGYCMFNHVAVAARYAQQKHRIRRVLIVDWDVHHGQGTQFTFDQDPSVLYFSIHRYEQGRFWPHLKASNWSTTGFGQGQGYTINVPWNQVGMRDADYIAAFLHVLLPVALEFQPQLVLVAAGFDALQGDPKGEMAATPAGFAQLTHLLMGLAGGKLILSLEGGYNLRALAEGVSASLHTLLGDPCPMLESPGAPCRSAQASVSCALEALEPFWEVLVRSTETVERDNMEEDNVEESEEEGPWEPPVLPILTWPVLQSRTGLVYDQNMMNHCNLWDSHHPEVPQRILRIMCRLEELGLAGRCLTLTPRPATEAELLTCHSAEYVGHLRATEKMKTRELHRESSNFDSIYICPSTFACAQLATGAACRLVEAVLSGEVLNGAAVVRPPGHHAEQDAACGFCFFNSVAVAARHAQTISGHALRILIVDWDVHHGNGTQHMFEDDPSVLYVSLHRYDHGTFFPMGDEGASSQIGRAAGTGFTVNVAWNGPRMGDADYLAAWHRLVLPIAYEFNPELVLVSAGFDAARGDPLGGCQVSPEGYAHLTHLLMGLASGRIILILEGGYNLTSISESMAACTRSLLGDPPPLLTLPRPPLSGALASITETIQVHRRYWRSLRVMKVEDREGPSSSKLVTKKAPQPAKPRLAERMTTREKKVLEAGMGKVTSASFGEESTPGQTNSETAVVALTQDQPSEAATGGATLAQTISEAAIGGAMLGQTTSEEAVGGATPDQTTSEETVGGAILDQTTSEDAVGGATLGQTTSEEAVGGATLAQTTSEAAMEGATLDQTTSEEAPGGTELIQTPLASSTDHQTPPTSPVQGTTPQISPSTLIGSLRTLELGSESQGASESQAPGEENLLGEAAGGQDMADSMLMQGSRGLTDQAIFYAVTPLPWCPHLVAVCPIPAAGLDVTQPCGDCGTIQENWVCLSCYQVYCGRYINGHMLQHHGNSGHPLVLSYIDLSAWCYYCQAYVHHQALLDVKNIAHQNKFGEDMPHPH
Experimental: The enzyme was diluted with 25 mM Tris-Cl, 137 mM NaCl, 2.7 mM KCl, 1 mM MgCl2, 0.1 mg/ml BSA, pH 8.0 buffer and its activity was measured by using Substrate 3 (BPS Bioscience; catalog #50037). The assays were carried out in black, low-binding NUNC 96-well plates. Each well contained a volume of 50 μl including buffer, HDAC (50 ng/well), inhibitor, and substrate (20 μM). Prior to adding substrate, the plate was pre-incubated for 5 min. Upon addition of substrate, the plate was incubated at 37 °C for 30 min. At this point, HDAC assay developer (50 μl, BPS Bioscience; catalog #50030) was added to each well and the plate was incubated for 15 min at room temperature. The fluorescence was recorded with a BioTek FLx800 or Synergy H4 microplate reader.

[2] = target: BRISC and BRCA1-A complex member 1/BRISC and BRCA1-A complex member 2/BRISC complex subunit Abraxas 2/Lys-63-specific deubiquitinase BRCC36 (Human, UniProt P46736+Q15018+Q9NWV8+Q9NXR7); experiment: In Vitro BRCC36 Activity Assay
Experimental: BRCC36 activity was measured using 1 nM purified BRISC complex and 80 nM di-ubiquitin substrate DiUbK63TAMRA (UF-310, Boston Biochem). TAMRA fluorescence intensity was monitored using a PHERAstar plate reader with excitation at 540 nm and emission at 590 nm. Reactions were performed in black low-volume 384-well plates and analyzed as described above.

[3] = target: 72 kDa type IV collagenase (Homo sapiens, UniProt P08253); experiment: MMP Activity Assay; conditions: pH 7.5; 37 °C
Experimental: (§1) The assay was carried out in white NUNC 96-well plates as previously described [Puerta et al., J. Biol. Inorg. Chem., 11:131-138]. Each well contained a total volume of 90 μl including buffer (50 mM HEPES, 10 mM CaCl2, 0.05% Brij-35, pH 7.5), human recombinant MMP (1.16 U/well for MMP2 and 0.007 U/well for MMP12), and the fragment solution. This mixture was incubated at 37 °C for 30 min. The reaction was then initiated by the addition of 10 μl of the fluorogenic MMP substrate (4 μM final concentration, Mca-Pro-Leu-Gly-Leu-Dpa-Ala-Arg-NH2-AcOH) (Mca = (7-methoxycoumarin-4-yl) acetyl; Dpa = N-3-(2,4-dinitrophenyl)-L-a,β-diaminopropionyl). Fluorescence measurements were recorded using a BioTek Synergy H4 fluorescence plate reader every minute for 20 min with excitation and emission wavelengths at 320 and 400 nm, respectively.

[4] = target: Macrophage metalloelastase (Homo sapiens, UniProt P39900); experiment: MMP Activity Assay; conditions: pH 7.5; 37 °C
Experimental: as §1

Chain of Lactoylglutathione lyase (Q04760 whole entry): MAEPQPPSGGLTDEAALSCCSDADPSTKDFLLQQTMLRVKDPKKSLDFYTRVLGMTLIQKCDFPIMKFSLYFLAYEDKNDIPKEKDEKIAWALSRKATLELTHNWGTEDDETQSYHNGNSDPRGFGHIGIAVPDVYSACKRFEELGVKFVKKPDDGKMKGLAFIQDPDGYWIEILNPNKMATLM
Chain of Macrophage metalloelastase (P39900 whole entry): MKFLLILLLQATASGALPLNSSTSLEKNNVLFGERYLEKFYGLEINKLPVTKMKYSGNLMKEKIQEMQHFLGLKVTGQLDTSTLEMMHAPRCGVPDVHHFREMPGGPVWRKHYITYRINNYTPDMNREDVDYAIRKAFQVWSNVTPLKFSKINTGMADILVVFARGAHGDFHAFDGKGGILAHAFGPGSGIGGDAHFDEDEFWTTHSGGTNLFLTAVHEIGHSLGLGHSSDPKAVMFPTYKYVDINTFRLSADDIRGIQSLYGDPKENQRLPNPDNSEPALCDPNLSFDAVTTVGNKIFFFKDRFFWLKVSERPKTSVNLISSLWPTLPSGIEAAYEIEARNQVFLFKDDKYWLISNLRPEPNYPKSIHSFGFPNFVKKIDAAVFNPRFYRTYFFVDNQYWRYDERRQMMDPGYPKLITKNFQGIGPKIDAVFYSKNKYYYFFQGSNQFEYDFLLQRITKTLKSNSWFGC
Chain of 72 kDa type IV collagenase (P08253 whole entry, the tested form may be a part): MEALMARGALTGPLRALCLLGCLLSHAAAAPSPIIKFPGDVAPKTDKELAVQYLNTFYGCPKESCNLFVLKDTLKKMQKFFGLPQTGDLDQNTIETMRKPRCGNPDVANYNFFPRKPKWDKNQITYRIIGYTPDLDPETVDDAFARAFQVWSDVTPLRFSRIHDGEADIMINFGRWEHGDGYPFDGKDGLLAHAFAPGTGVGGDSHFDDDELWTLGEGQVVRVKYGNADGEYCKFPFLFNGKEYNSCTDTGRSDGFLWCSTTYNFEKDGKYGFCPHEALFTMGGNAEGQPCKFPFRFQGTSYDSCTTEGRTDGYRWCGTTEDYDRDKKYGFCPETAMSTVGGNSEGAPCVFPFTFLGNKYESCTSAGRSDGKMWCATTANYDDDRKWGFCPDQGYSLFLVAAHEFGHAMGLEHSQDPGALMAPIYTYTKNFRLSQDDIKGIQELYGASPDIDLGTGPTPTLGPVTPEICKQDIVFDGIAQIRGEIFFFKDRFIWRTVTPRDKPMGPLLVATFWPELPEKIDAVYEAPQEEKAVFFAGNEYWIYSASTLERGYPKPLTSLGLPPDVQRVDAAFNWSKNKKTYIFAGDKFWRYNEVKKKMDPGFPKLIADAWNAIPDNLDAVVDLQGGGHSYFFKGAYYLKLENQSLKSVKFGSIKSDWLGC
Chain of 26S proteasome non-ATPase regulatory subunit 14 (O00487 whole entry): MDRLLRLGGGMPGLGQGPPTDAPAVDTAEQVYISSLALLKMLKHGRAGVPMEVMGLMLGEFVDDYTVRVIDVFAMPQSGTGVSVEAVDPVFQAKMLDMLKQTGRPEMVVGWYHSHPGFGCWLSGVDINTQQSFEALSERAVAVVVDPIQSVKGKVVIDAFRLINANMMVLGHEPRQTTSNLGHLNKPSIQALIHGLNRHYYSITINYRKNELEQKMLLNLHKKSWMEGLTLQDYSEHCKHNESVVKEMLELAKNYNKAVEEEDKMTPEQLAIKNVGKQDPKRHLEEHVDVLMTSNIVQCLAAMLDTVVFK

SMILES	IC50 [1] [µM]	IC50 (Lactoylglutathione lyase) [µM]	IC50 (Histone deacetylase 6) [µM]	IC50 [2] [µM]	IC50 [3] [µM]	IC50 [4] [µM]
Sc1cccc2cccnc12 [8-Mercaptoquinoline (8TQ)]	2.4	–	–	–	–	–
O=C(NCCc1nccs1)c1cnc2c(S)cccc2c1 [Capzimin]	–	42.8	> 200	2.3	> 50	> 50
